Results published in patent publication US12129240B2, “Sulfonium salt, photoacid generator, curable composition and resist composition” (SAN-APRO LTD., priority 2019, dated 2024).

Assay: Evaluation of solubility in solvent
Format: physicochemical
Settings: room temperature (25° C.), highest concentration completely dissolved; for Solubility Solvent-4: propylene carbonate; for Solubility Solvent-3: γ-butyrolactone

SMILES	Solubility Solvent-4 [wt %]	Solubility Solvent-3 [wt %]
CC(C)(C)c1cccc([S+](c2ccc3sc4ccccc4c(=O)c3c2)c2ccc(Sc3ccc4sc5ccccc5c(=O)c4c3)cc2C(C)(C)C)c1 (stereo not drawn) [Example 20, [2-tert-butyl-4-(2-thioxanthonylthio)phenyl](3-tert-butylphenyl) (2-thioxanthonyl)sulfonium Hexafluorophosphate]	27	25
Cc1cc(C)cc([S+](c2ccc3sc4ccccc4c(=O)c3c2)c2c(C)cc(Sc3ccc4sc5ccccc5c(=O)c4c3)cc2C)c1 (stereo not drawn) [Example 31, [2,6-dimethyl-4-(2-thioxanthonylthio)phenyl](3,5-dimethylphenyl) (2-thioxanthonyl)sulfonium Hexafluoroantimonate]	23	25
Cc1ccc(C)c([S+](c2ccc3sc4ccccc4c(=O)c3c2)c2cc(C)c(Sc3ccc4sc5ccccc5c(=O)c4c3)cc2C)c1 (stereo not drawn) [Example 39, [2,5-dimethyl-4-(2-thioxanthonylthio)phenyl](2,5-dimethylphenyl) (2-thioxanthonyl)sulfonium Hexafluoroantimonate]	23	29
Cc1ccc(C)c([S+](c2ccc3sc4ccccc4c(=O)c3c2)c2cc(C)c(Sc3ccc4sc5ccccc5c(=O)c4c3)cc2C)c1 (stereo not drawn) [Example 36, [2,5-dimethyl-4-(2-thioxanthonylthio)phenyl](2,5-dimethylphenyl) (2-thioxanthonyl)sulfonium Potassium Hexafluorophosphate]	25	25
COc1cccc([S+](c2ccc3sc4ccccc4c(=O)c3c2)c2ccc(Sc3ccc4sc5ccccc5c(=O)c4c3)cc2OC)c1 (stereo not drawn) [Example 12, [2-methoxy-4-(2-thioxanthonylthio)phenyl](3-methoxyphenyl) (2-thioxanthonyl)sulfonium Hexafluorophosphate]	21	10
COc1cccc([S+](c2ccc3sc4ccccc4c(=O)c3c2)c2ccc(Sc3ccc4sc5ccccc5c(=O)c4c3)cc2OC)c1 (stereo not drawn) [Example 15, [2-methoxy-4-(2-thioxanthonylthio)phenyl](3-methoxyphenyl) (2-thioxanthonyl)sulfonium Hexafluoroantimonate]	20	18
Cc1ccc(C)c([S+](c2ccc3sc4ccccc4c(=O)c3c2)c2cc(C)c(Oc3ccc4sc5ccccc5c(=O)c4c3)cc2C)c1 (stereo not drawn) [Example 49, [2,5-dimethyl-4-(2-thioxanthonyloxy)phenyl](2,5-dimethylphenyl) (2-thioxanthonyl)sulfonium tris(pentafluoroethyl) Trifluorophosphate]	38	45
COc1cccc([S+](c2ccc3sc4ccccc4c(=O)c3c2)c2ccc(Sc3ccc4sc5ccccc5c(=O)c4c3)cc2OC)c1 (stereo not drawn) [Example 14, [2-methoxy-4-(2-thioxanthonylthio)phenyl](3-methoxyphenyl) (2-thioxanthonyl)sulfonium tris(pentafluoroethyl) Trifluorophosphate]	32	31
CC(C)(C)c1cccc([S+](c2ccc3sc4ccccc4c(=O)c3c2)c2ccc(Sc3ccc4sc5ccccc5c(=O)c4c3)cc2C(C)(C)C)c1 (stereo not drawn) [Example 23, [2-tert-butyl-4-(2-thioxanthonylthio)phenyl](3-tert-butylphenyl) (2-thioxanthonyl)sulfonium Hexafluoroantimonate]	24	25
Cc1cc([S+](c2ccc3sc4ccccc4c(=O)c3c2)c2cc(C(C)(C)C)ccc2C)c(C(C)(C)C)cc1Sc1ccc2sc3ccccc3c(=O)c2c1 (stereo not drawn) [Example 46, [2-tert-butyl-5-methyl-4-(2-thioxanthonylthio)phenyl](5-tert-butyl-2-methylphenyl) (2-thioxanthonyl)sulfonium tris(pentafluoroethyl) Trifluorophosphate]	33	49
Cc1cccc([S+](c2ccc3sc4ccccc4c(=O)c3c2)c2ccc(Sc3ccc4sc5ccccc5c(=O)c4c3)cc2C)c1 (stereo not drawn) [Example 4, [2-methyl-4-(2-thioxanthonylthio)phenyl](3-methylphenyl) (2-thioxanthonyl)sulfonium Hexafluorophosphate]	12	12
O=c1c2ccccc2sc2ccc(Sc3ccc([S+](c4ccccc4)c4ccc5sc6ccccc6c(=O)c5c4)cc3)cc12 (stereo not drawn) [Comparative Example 3, reference compound]	32	23
Cc1ccc(C)c([S+](c2ccc3sc4ccccc4c(=O)c3c2)c2cc(C)c([S+]([O-])c3ccc4sc5ccccc5c(=O)c4c3)cc2C)c1 (stereo not drawn) [Example 50, [2,5-dimethyl-4-(2-thioxanthonylsulfinyl)phenyl](2,5-dimethylphenyl) (2-thioxanthonyl)sulfonium tris(pentafluoroethyl) Trifluorophosphate]	30	40
CC(C)(C)c1cccc([S+](c2ccc3sc4ccccc4c(=O)c3c2)c2ccc(Sc3ccc4sc5ccccc5c(=O)c4c3)cc2C(C)(C)C)c1 (stereo not drawn) [Example 22, [2-tert-butyl-4-(2-thioxanthonylthio)phenyl](3-tert-butylphenyl) (2-thioxanthonyl)sulfonium tris(pentafluoroethyl) Trifluorophosphate]	33	38
O=c1c2ccccc2sc2ccc(Sc3ccc([S+](c4ccccc4)c4ccc5sc6ccccc6c(=O)c5c4)cc3)cc12 (stereo not drawn) [Comparative Example 2, reference compound]	2	7
Cc1ccc(C)c([S+](c2ccc3sc4ccccc4c(=O)c3c2)c2cc(C)c(Sc3ccc4sc5ccccc5c(=O)c4c3)cc2C)c1 (stereo not drawn) [Example 38, [2,5-dimethyl-4-(2-thioxanthonylthio)phenyl](2,5-dimethylphenyl) (2-thioxanthonyl)sulfonium tris(pentafluoroethyl) Trifluorophosphate]	33	40
Cc1cc([S+](c2ccc3sc4ccccc4c(=O)c3c2)c2cc(C(C)(C)C)ccc2C)c(C(C)(C)C)cc1Sc1ccc2sc3ccccc3c(=O)c2c1 (stereo not drawn) [Example 44, [2-tert-butyl-5-methyl-4-(2-thioxanthonylthio)phenyl](5-tert-butyl-2-methylphenyl) (2-thioxanthonyl)sulfonium Hexafluorophosphate]	31	33
O=c1c2ccccc2sc2ccc(Sc3ccc([S+](c4ccccc4)c4ccc5sc6ccccc6c(=O)c5c4)cc3)cc12 (stereo not drawn) [Comparative Example 4, reference compound]	3	9
Cc1cc(C)cc([S+](c2ccc3sc4ccccc4c(=O)c3c2)c2c(C)cc(Sc3ccc4sc5ccccc5c(=O)c4c3)cc2C)c1 (stereo not drawn) [Example 28, [2,6-dimethyl-4-(2-thioxanthonylthio)phenyl](3,5-dimethylphenyl) (2-thioxanthonyl)sulfonium Hexafluorophosphate]	25	30
Cc1cc(C)cc([S+](c2ccc3sc4ccccc4c(=O)c3c2)c2c(C)cc(Sc3ccc4sc5ccccc5c(=O)c4c3)cc2C)c1 (stereo not drawn) [Example 30, [2,6-dimethyl-4-(2-thioxanthonylthio)phenyl](3,5-dimethylphenyl) (2-thioxanthonyl)sulfonium tris(pentafluoroethyl) Trifluorophosphate]	33	40
Cc1ccc(C)c([S+](c2ccc3sc4ccccc4c(=O)c3c2)c2cc(C)c(S(=O)(=O)c3ccc4sc5ccccc5c(=O)c4c3)cc2C)c1 (stereo not drawn) [Example 51, [2,5-dimethyl-4-(2-thioxanthonylsulfonyl)phenyl](2,5-dimethylphenyl) (2-thioxanthonyl)sulfonium tris(pentafluoroethyl) Trifluorophosphate]	32	40
Cc1cc([S+](c2ccc3sc4ccccc4c(=O)c3c2)c2cc(C(C)(C)C)ccc2C)c(C(C)(C)C)cc1Sc1ccc2sc3ccccc3c(=O)c2c1 (stereo not drawn) [Example 47, [2-tert-butyl-5-methyl-4-(2-thioxanthonylthio)phenyl](5-tert-butyl-2-methylphenyl) (2-thioxanthonyl)sulfonium Hexafluoroantimonate]	30	33
Cc1cccc([S+](c2ccc3sc4ccccc4c(=O)c3c2)c2ccc(Sc3ccc4sc5ccccc5c(=O)c4c3)cc2C)c1 (stereo not drawn) [Example 6, [2-methyl-4-(2-thioxanthonylthio)phenyl](3-methylphenyl) (2-thioxanthonyl)sulfonium tris(pentafluoroethyl) Trifluorophosphate]	32	23
Cc1cccc([S+](c2ccc3sc4ccccc4c(=O)c3c2)c2ccc(Sc3ccc4sc5ccccc5c(=O)c4c3)cc2C)c1 (stereo not drawn) [Example 7, [2-methyl-4-(2-thioxanthonylthio)phenyl](3-methylphenyl) (2-thioxanthonyl)sulfonium Hexafluoroantimonate]	15	15
